Measurements: the supplement of paper PMC10307832

Legend:
Experiment in all cases: relative viability (nuclei count vs DMSO), 5 days (fraction); higher = more cells survive
Idelalisib + Lapatinib = compound: CC[C@H](Nc1ncnc2[nH]cnc12)c1nc2cccc(F)c2c(=O)n1-c1ccccc1 [Idelalisib] + CS(=O)(=O)CCNCc1ccc(-c2ccc3ncnc(Nc4ccc(OCc5cccc(F)c5)c(Cl)c4)c3c2)o1 [Lapatinib] (partner 2 µM)
In short: (§1)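 Dosing by pin tool came one day after lung cancer cell lines were seeded in 1536-well plates, using either one drug or a fixed anchor-drug dose plus five library-drug doses (not always all listed) in √10 steps. After 5 days, nuclei were counted on 4× images. Relative viability is treated-well nuclei count divided by vehicle-well nuclei count, and values are medians of duplicate plates.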

Pemetrexed + Foretinib = compound: Nc1nc2[nH]cc(CCc3ccc(C(=O)N[C@@H](CCC(=O)O)C(=O)O)cc3)c2c(=O)[nH]1 [Pemetrexed] + COc1cc2c(Oc3ccc(NC(=O)C4(C(=O)Nc5ccc(F)cc5)CC4)cc3F)ccnc2cc1OCCCN1CCOCC1 [Foretinib] (partner 0.25 µM)
In short: as §1

Pemetrexed + Dasatinib = compound: Nc1nc2[nH]cc(CCc3ccc(C(=O)N[C@@H](CCC(=O)O)C(=O)O)cc3)c2c(=O)[nH]1 [Pemetrexed] + Cc1nc(Nc2ncc(C(=O)Nc3c(C)cccc3Cl)s2)cc(N2CCN(CCO)CC2)n1 [Dasatinib] (partner 0.075 µM)
In short: as §1

Idelalisib + AZD7762 = compound: CC[C@H](Nc1ncnc2[nH]cnc12)c1nc2cccc(F)c2c(=O)n1-c1ccccc1 [Idelalisib] + NC(=O)Nc1cc(-c2cccc(F)c2)sc1C(=O)N[C@H]1CCCNC1 [AZD7762] (partner 0.2 µM)
In short: as §1

Cell Line | relative viability (Idelalisib + Lapatinib; first compound 0.04 µM) | relative viability (Idelalisib + Lapatinib; first compound 0.1265 µM) | relative viability (Idelalisib + Lapatinib; first compound 0.4 µM) | relative viability (Idelalisib + Lapatinib; first compound 1.265 µM) | relative viability (Idelalisib + Lapatinib; first compound 4 µM) | relative viability (Pemetrexed + Foretinib; first compound 0.002 µM) | relative viability (Pemetrexed + Foretinib; first compound 0.006325 µM) | relative viability (Pemetrexed + Foretinib; first compound 0.02 µM) | relative viability (Pemetrexed + Foretinib; first compound 0.06325 µM) | relative viability (Pemetrexed + Foretinib; first compound 0.2 µM) | relative viability (Pemetrexed + Dasatinib; first compound 0.002 µM) | relative viability (Pemetrexed + Dasatinib; first compound 0.006325 µM) | relative viability (Pemetrexed + Dasatinib; first compound 0.02 µM) | relative viability (Pemetrexed + Dasatinib; first compound 0.06325 µM) | relative viability (Pemetrexed + Dasatinib; first compound 0.2 µM) | relative viability (Idelalisib + AZD7762; first compound 0.04 µM) | relative viability (Idelalisib + AZD7762; first compound 0.1265 µM) | relative viability (Idelalisib + AZD7762; first compound 0.4 µM) | relative viability (Idelalisib + AZD7762; first compound 1.265 µM) | relative viability (Idelalisib + AZD7762; first compound 4 µM)
SK-MES-1 | 0.467 | 0.445 | 0.432 | 0.443 | 0.396 | 0.883 | 0.83 | 1.04 | 0.907 | 0.868 | 0.411 | 0.367 | 0.516 | 0.328 | 0.339 |  |  |  |  | 
NCI-H1648 |  |  |  |  |  |  |  |  |  |  |  |  |  |  |  | 0.652 | 0.638 | 0.866 | 0.6 | 0.504
NCI-H2009 | 0.944 | 1.04 | 0.883 | 0.572 | 0.93 | 1.2 | 1.28 | 1.29 | 1.2 | 1.11 | 0.299 | 0.289 | 0.377 | 0.265 | 0.307 |  |  |  |  | 
NCI-H661 | 0.44 | 0.433 | 0.39 | 0.367 | 0.391 | 1.03 | 0.987 | 1.01 | 0.985 | 0.974 | 0.882 | 0.84 | 0.958 | 0.945 | 0.827 |  |  |  |  | 
NCI-H520 | 0.776 | 0.999 | 0.717 | 0.923 | 0.684 | 0.787 | 0.749 | 0.848 | 0.693 | 0.738 | 0.235 | 0.224 | 0.208 | 0.203 | 0.235 |  |  |  |  | 
NCI-H1563 | 1.01 | 1.05 | 0.833 | 1 | 0.83 | 0.822 | 0.87 | 1.01 | 0.909 | 0.919 | 0.24 | 0.453 | 0.486 | 0.426 | 0.492 |  |  |  |  | 
